# Results published in PMC5322940 (Cell, 2016).
# Columns and labels:
# hCB1 WT receptor = hCB1 WT receptor (Homo sapiens, UniProt P21554); assay: biochemical; format: binding
# WT CB1 = WT CB1 (Homo sapiens, UniProt P21554); assay: Wash out experiment followed by [3H]-CP55,940 saturation binding
# hCB1R [1] = biological target: T1, hCB1R (Homo sapiens, UniProt P21554); format: cell-based
# hCB1R [2] = biological target: T1, hCB1R; format: cell-based; remark: listed apart in the source
# CB1 [3] = biological target: CB1 (Mus musculus, UniProt P47746); assay: [35S]GTPγS binding to CB1 in C57 mouse cerebellum membranes; format: biochemical
# CB1 (Mus musculus, UniProt P47746), sequence (P47746 whole entry): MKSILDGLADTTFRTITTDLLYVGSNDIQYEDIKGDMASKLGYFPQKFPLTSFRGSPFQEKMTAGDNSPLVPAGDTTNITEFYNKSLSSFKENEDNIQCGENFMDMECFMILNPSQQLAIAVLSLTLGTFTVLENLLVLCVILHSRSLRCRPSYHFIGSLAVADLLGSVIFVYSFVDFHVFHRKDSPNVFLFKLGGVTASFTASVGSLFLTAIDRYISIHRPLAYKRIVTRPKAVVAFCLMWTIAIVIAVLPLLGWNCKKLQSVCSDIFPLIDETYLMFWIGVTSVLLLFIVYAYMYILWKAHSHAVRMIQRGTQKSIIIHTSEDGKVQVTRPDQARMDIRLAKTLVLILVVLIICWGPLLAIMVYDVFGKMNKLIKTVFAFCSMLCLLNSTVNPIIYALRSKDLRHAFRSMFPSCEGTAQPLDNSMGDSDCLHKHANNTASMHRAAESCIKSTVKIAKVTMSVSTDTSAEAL
# [4] = tested on: hCB1 Phe170^2.57Ala or Phe174^2.61Ala; assay: Functional studies in mutant hCB1-CHO cells, Phe170Ala or Phe174Ala; format: cell-based, human
# CB1 [5] = details: cited from earlier work
# [6] = tested on: hCB1 Phe170^2.57Trp or Phe174^2.61Trp; assay: Functional studies in mutant hCB1-CHO cells, Phe170Trp or Phe174Trp; format: cell-based, human; details: Phe170Ala/Trp or Phe174Ala/Trp vs WT
# [7] = agonist, mouse cerebellum, mean ± S.E.M.
# T1 sequence (P21554 whole entry): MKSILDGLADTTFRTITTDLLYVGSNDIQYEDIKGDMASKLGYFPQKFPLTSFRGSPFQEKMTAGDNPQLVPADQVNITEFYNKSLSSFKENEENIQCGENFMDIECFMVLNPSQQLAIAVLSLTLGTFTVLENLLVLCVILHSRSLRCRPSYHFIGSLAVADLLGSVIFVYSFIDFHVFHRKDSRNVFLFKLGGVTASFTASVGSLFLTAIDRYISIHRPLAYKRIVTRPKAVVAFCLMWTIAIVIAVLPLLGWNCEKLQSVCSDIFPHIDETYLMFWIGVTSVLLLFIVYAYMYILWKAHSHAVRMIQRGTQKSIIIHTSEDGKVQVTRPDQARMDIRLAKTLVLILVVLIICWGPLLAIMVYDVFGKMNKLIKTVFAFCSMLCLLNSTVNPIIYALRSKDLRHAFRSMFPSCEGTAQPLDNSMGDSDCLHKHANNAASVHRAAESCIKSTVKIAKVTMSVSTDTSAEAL
# hCB1 WT receptor, sequence (P21554 whole entry): as above
# WT CB1, sequence (P21554 whole entry): as above
smiles,measurement,setting,value
"Cc1c(C(=O)NN2CCCCC2)nn(-c2ccc(Cl)cc2Cl)c1-c1ccc(C#CCCO[N+](=O)[O-])cc1 [AM6538, 4-(4-(1-(2,4-dichlorophenyl)-4-methyl-3-(piperidin-1-ylcarbamoyl)-1H-pyrazol-5-yl)phenyl)but-3-yn-1-yl nitrate]",Ki,hCB1 WT receptor,3.4 ± 1 nM
same,"Percentage of remaining binding (Bmax) of [3H]-CP55,940",hCB1 WT receptor,~ 30%
same,"Effect on subsequent [3H]-CP55,940 binding after pretreatment and washout",WT CB1,wash-resistant binding
same,Mode of antagonism of CB1-mediated inhibition of adenylyl cyclase activity,hCB1R [1],competitive antagonist
same,Mode of antagonism of β-arrestin2 recruitment,hCB1R [2],competitive antagonist
same,Mode of antagonism of [35S]-GTPγS binding,CB1 [3],Competitive antagonism was confirmed
same,Effect of mutation on antagonist functional affinity,[4],dramatically reduced functional affinity
Cc1c(C(=O)NN2CCS(=O)(=O)CC2)nn(-c2ccc(Cl)cc2Cl)c1-c1ccc(C#CCCC#N)cc1 [AM6545],Affinity and mode of action at CB1,"CB1 [5]; ref Tam et al., 2010",high affinity CB1 neutral antagonist
"CCCCCCC(C)(C)c1ccc([C@@H]2C[C@H](O)CC[C@H]2CCCO)c(O)c1 [CP55,940]",EC50,CB1 [3]; [7],63 ± 5.5 nM
same,Emax,CB1 [3]; [7],2.40 ± 0.04 fold over baseline
same,Effect of mutation on agonist potency,[4]; Phe170Ala or Phe174Ala vs WT,neither mutation alters the potency
same,Effect of mutation on agonist potency,[6],do not alter the potency
C[C@H](NC(=O)C(C)(C)Oc1ccc(C(F)(F)F)cn1)[C@@H](Cc1ccc(Cl)cc1)c1cccc(C#N)c1 [Taranabant],Affinity with CB1,"CB1 [5]; among rimonabant, otenabant and taranabant, ref Table S2",highest affinity
Cc1c(C(=O)NN2CCCCC2)nn(-c2ccc(Cl)cc2Cl)c1-c1ccc(Cl)cc1 [rimonabant],Effect of mutation on antagonist functional affinity,[4],dramatically reduced functional affinity
